Measured values taken from PubChem BioAssay AID330 (DTP/NCI, 2004).
“And” between values parts separate entries of the source, which are not always exact repeats. Equal entries are not always repeated. Toxic doses and inconclusive results are not listed.

Tested on: P388 leukemia ip, CD2F1 mice, survival T/C
Experiment: NCI In Vivo Anticancer Drug Screen. Data for tumor model P388 Leukemia (intraperitoneal) in CD2F1 (CDF1) mice
Settings: endpoint: median survival time, higher = longer survival
Summary of the method: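 Mice carrying the transplanted tumor received test compound or vehicle. Survival was recorded in each group, and the value is the treated-group measurement divided by that of the vehicle-treated control group.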

[1] = dose: 50.0 mg/kg/injection, schedule: Q01DX005 (ip), vehicle: saline with Tween-80
[2] = dose: 100.0 mg/kg/injection, schedule: Q01DX005 (ip), vehicle: saline with Tween-80
[3] = dose: 200.0 mg/kg/injection, schedule: Q01DX005 (ip), vehicle: saline with Tween-80
[4] = dose: 100.0 mg/kg/injection, schedule: Q01DX001 (ip), vehicle: Klucel (hydroxypropylcellulose) (HPC)
[5] = dose: 12.5 mg/kg/injection, schedule: Q01DX009 (ip), vehicle: Klucel (hydroxypropylcellulose) (HPC)
[6] = dose: 25.0 mg/kg/injection, schedule: Q01DX009 (ip), vehicle: Klucel (hydroxypropylcellulose) (HPC)
[7] = dose: 50.0 mg/kg/injection, schedule: Q01DX009 (ip), vehicle: Klucel (hydroxypropylcellulose) (HPC)
[8] = dose: 100.0 mg/kg/injection, schedule: Q01DX009 (ip), vehicle: Klucel (hydroxypropylcellulose) (HPC)
[9] = dose: 200.0 mg/kg/injection, schedule: Q01DX009 (ip), vehicle: Klucel (hydroxypropylcellulose) (HPC)
[10] = dose: 12.5 mg/kg/injection, schedule: Q01DX009 (ip), vehicle: distilled water + Tween-80
[11] = dose: 25.0 mg/kg/injection, schedule: Q01DX009 (ip), vehicle: distilled water + Tween-80
[12] = dose: 25.0 mg/kg/injection, schedule: Q01DX009 (ip), vehicle: saline with Tween-80
[13] = dose: 50.0 mg/kg/injection, schedule: Q01DX009 (ip), vehicle: saline with Tween-80
[14] = dose: 50.0 mg/kg/injection, schedule: Q01DX009 (ip), vehicle: saline
[15] = dose: 100.0 mg/kg/injection, schedule: Q01DX009 (ip), vehicle: saline
[16] = dose: 200.0 mg/kg/injection, schedule: Q01DX009 (ip), vehicle: saline
[17] = dose: 60.0 mg/kg/injection, schedule: Q01DX005 (ip), vehicle: saline with Tween-80
[18] = dose: 120.0 mg/kg/injection, schedule: Q01DX005 (ip), vehicle: saline with Tween-80
[19] = dose: 240.0 mg/kg/injection, schedule: Q01DX005 (ip), vehicle: saline with Tween-80
[20] = dose: 50.0 mg/kg/injection, schedule: Q01DX005 (ip), vehicle: Klucel (hydroxypropylcellulose) (HPC)
[21] = dose: 100.0 mg/kg/injection, schedule: Q01DX005 (ip), vehicle: Klucel (hydroxypropylcellulose) (HPC)
[22] = dose: 200.0 mg/kg/injection, schedule: Q01DX005 (ip), vehicle: Klucel (hydroxypropylcellulose) (HPC)

Structure (SMILES): CCCCCCN(CCCCCC)CC(O)c1cc(-c2ccccc2)nc2cc(Cl)ccc12 (centres undefined)
- T/C [1]: 115 % of control
- T/C [2]: 103 % of control
- T/C [3]: 113 % of control

Structure (SMILES): COC(=O)C1C(O)CCC2CN3CCc4c([nH]c5cc(OC)ccc45)C3CC21 (centres undefined)
- T/C (dose: 20.0 mg/kg/injection, schedule: Q01DX005 (ip), vehicle: DMSO): 104 % of control
- T/C (dose: 40.0 mg/kg/injection, schedule: Q01DX005 (ip), vehicle: DMSO): 111 % of control
- T/C (dose: 80.0 mg/kg/injection, schedule: Q01DX005 (ip), vehicle: DMSO): 102 % of control
- T/C (dose: 160.0 mg/kg/injection, schedule: Q01DX005 (ip), vehicle: DMSO): 100 % of control

Structure (SMILES): Cc1[nH]c2cc(Br)ccc2c1/C=N/NC(N)=S
- T/C [4]: 107 % of control

Structure (SMILES): O=C1NC(=O)C2(Cc3cccc4cccc2c34)N1 (centres undefined)
- T/C [1]: 103 % of control
- T/C [2]: 100 % of control
- T/C [3]: 99 % of control

Structure (SMILES): COc1ccccc1NC(=O)Cc1nc(=O)[nH]c(=O)[nH]1
- T/C [5]: 100 % of control
- T/C [6]: 90 % of control
- T/C [7]: 101 % of control
- T/C [8]: 102 % of control
- T/C [9]: 96 % of control

Structure (SMILES): Nc1nc2ncc(CCNc3ccc(C(=O)NC(CCC(=O)O)C(=O)O)cc3)nc2c(=O)[nH]1 (centres undefined)
- T/C [5]: 98 % of control
- T/C [6]: 103 % of control
- T/C [7]: 107 % of control
- T/C [8]: 93 % of control

Structure (SMILES): O=[N+]([O-])c1nccn1CCCl
- T/C [10]: 95 % of control
- T/C [11]: 113 % of control
- T/C (dose: 50.0 mg/kg/injection, schedule: Q01DX009 (ip), vehicle: distilled water + Tween-80): 100 % of control

Structure (SMILES): CCOC(=O)CC(N)/C(C)=N\O (centres undefined)
- T/C (dose: 60.0 mg/kg/injection, schedule: Q01DX005 (ip), vehicle: Klucel + Tween-80): 104 % of control
- T/C (dose: 120.0 mg/kg/injection, schedule: Q01DX005 (ip), vehicle: Klucel + Tween-80): 100 % of control
- T/C (dose: 240.0 mg/kg/injection, schedule: Q01DX005 (ip), vehicle: Klucel + Tween-80): 100 % of control

Structure (SMILES): NC(=O)NC(N)=S
- T/C [12]: 100 % of control
- T/C [13]: 105 % of control
- T/C (dose: 100.0 mg/kg/injection, schedule: Q01DX009 (ip), vehicle: saline with Tween-80): 99 % of control
- T/C (dose: 200.0 mg/kg/injection, schedule: Q01DX009 (ip), vehicle: saline with Tween-80): 98 % of control

Structure (SMILES): O=c1cc(CCl)occ1O
- T/C [14]: 100 % of control and 113 % of control
- T/C [15]: 101 % of control and 103 % of control
- T/C [16]: 100 % of control and 113 % of control
- T/C (dose: 400.0 mg/kg/injection, schedule: Q01DX009 (ip), vehicle: saline): 110 % of control and 95 % of control

Structure (SMILES): CC(=O)C1=C(O)/C(=C\c2ccccc2)OC1=O
- T/C [7]: 92 % of control
- T/C [8]: 107 % of control

Structure (SMILES): NS(=O)(=O)c1ccc(NCc2c3ccccc3nc3cc(Cl)ccc23)cc1
- T/C [17]: 104 % of control
- T/C [18]: 95 % of control
- T/C [19]: 94 % of control

Structure (SMILES): O=C(O)c1c[nH]c2cc(OCc3ccc(Cl)c(Cl)c3)ccc2c1=O
- T/C (dose: 12.5 mg/kg/injection, schedule: Q01DX009 (ip), vehicle: saline with Tween-80): 95 % of control
- T/C [12]: 91 % of control
- T/C [13]: 94 % of control
- T/C [14]: 92 % of control

Structure (SMILES): CCN(CC)CCCC(C)Nc1cc(C)nc2ccc(N(C)C)cc12 (centres undefined)
- T/C (dose: 15.0 mg/kg/injection, schedule: Q01DX005 (ip), vehicle: saline with Tween-80): 108 % of control
- T/C (dose: 30.0 mg/kg/injection, schedule: Q01DX005 (ip), vehicle: saline with Tween-80): 105 % of control
- T/C [17]: 100 % of control and 103 % of control

Structure (SMILES): Cc1nc2ccccc2c(=O)n1/N=C/c1ccc(Cl)cc1Cl
- T/C [1]: 92 % of control
- T/C [2]: 100 % of control

Structure (SMILES): C1CN2CN3CCN(CN1C3)C2
- T/C (dose: 6.25 mg/kg/injection, schedule: Q01DX009 (ip), vehicle: saline): 108 % of control
- T/C [14]: 158 % of control
- T/C [15]: 168 % of control

Structure (SMILES): COC(=O)CS(=O)(=O)CC(=O)OC
- T/C [7]: 100 % of control
- T/C [8]: 106 % of control
- T/C [9]: 101 % of control

Structure (SMILES): O=C(Nc1ccccc1)c1csc(-c2csc(CCNC(=O)C(F)(F)F)n2)n1
- T/C [10]: 88 % of control
- T/C [11]: 88 % of control
- T/C (dose: 100.0 mg/kg/injection, schedule: Q01DX009 (ip), vehicle: distilled water + Tween-80): 88 % of control
- T/C (dose: 200.0 mg/kg/injection, schedule: Q01DX009 (ip), vehicle: distilled water + Tween-80): 89 % of control

Structure (SMILES): CN1CCN(CCSSCCN2CCN(C)CC2)CC1
- T/C [14]: 109 % of control
- T/C [15]: 104 % of control
- T/C [16]: 109 % of control

Structure (SMILES): O=CN1CCCC1Cc1ccc2ccccc2c1 (centres undefined)
- T/C (dose: 50.0 mg/kg/injection, schedule: Q01DX001 (ip), vehicle: Klucel (hydroxypropylcellulose) (HPC)): 107 % of control
- T/C [4]: 98 % of control
- T/C (dose: 200.0 mg/kg/injection, schedule: Q01DX001 (ip), vehicle: Klucel (hydroxypropylcellulose) (HPC)): 101 % of control

Structure (SMILES): O=C(CCl)NC(Cc1ccsc1)C(=O)O (centres undefined)
- T/C [14]: 93 % of control
- T/C [15]: 102 % of control

Structure (SMILES): CC1(c2ccccc2)OC(=O)C=CC1=O (centres undefined)
- T/C [17]: 110 % of control
- T/C [18]: 104 % of control
- T/C [19]: 108 % of control

Structure (SMILES): C[n+]1c(-c2ccc(/C=N\Nc3nnc(S)n3/N=C/c3ccc(-c4cn5ccccc5[n+]4C)cc3)cc2)cn2ccccc21
- T/C (dose: 0.23 mg/kg/injection, schedule: Q01DX005 (ip), vehicle: saline with Tween-80): 101 % of control
- T/C (dose: 0.47 mg/kg/injection, schedule: Q01DX005 (ip), vehicle: saline with Tween-80): 92 % of control
- T/C (dose: 0.94 mg/kg/injection, schedule: Q01DX005 (ip), vehicle: saline with Tween-80): 95 % of control
- T/C (dose: 1.88 mg/kg/injection, schedule: Q01DX005 (ip), vehicle: saline with Tween-80): 100 % of control

Structure (SMILES): CC(=O)NC(c1nc2cc(C)c(C)cc2[nH]1)c1nc2cc(C)c(C)cc2[nH]1
- T/C [20]: 101 % of control
- T/C [21]: 106 % of control
- T/C [22]: 110 % of control

Structure (SMILES): Cc1ccc(-c2nc3ncnc(N)c3[nH]2)cc1
- T/C (dose: 6.25 mg/kg/injection, schedule: Q04DX003 (ip), vehicle: saline with Tween-80): 100 % of control
- T/C (dose: 12.5 mg/kg/injection, schedule: Q04DX003 (ip), vehicle: saline with Tween-80): 100 % of control
- T/C (dose: 25.0 mg/kg/injection, schedule: Q04DX003 (ip), vehicle: saline with Tween-80): 100 % of control and 107 % of control and 114 % of control
- T/C (dose: 50.0 mg/kg/injection, schedule: Q04DX003 (ip), vehicle: saline with Tween-80): 102 % of control and 113 % of control
- T/C (dose: 100.0 mg/kg/injection, schedule: Q04DX003 (ip), vehicle: saline with Tween-80): 108 % of control and 124 % of control
- T/C (dose: 200.0 mg/kg/injection, schedule: Q04DX003 (ip), vehicle: saline with Tween-80): 116 % of control

Structure (SMILES): CCNC(=O)N(CC(N)=O)c1ncc([N+](=O)[O-])s1
- T/C (dose: 6.25 mg/kg/injection, schedule: Q01DX001 (ip), vehicle: saline): 105 % of control
- T/C (dose: 12.5 mg/kg/injection, schedule: Q01DX001 (ip), vehicle: saline): 103 % of control
- T/C (dose: 25.0 mg/kg/injection, schedule: Q01DX001 (ip), vehicle: saline): 104 % of control
- T/C (dose: 50.0 mg/kg/injection, schedule: Q01DX001 (ip), vehicle: saline): 100 % of control and 103 % of control
- T/C (dose: 100.0 mg/kg/injection, schedule: Q01DX001 (ip), vehicle: saline): 106 % of control and 97 % of control

Structure (SMILES): CN(C)/C=C/C=C1\CCCC1=O
- T/C (dose: 50.0 mg/kg/injection, schedule: Q04DX002 (ip), vehicle: saline with Tween-80): 103 % of control
- T/C (dose: 100.0 mg/kg/injection, schedule: Q04DX002 (ip), vehicle: saline with Tween-80): 100 % of control
- T/C (dose: 200.0 mg/kg/injection, schedule: Q04DX002 (ip), vehicle: saline with Tween-80): 108 % of control

Structure (SMILES): Nc1nnc(-c2ccc[n+]([O-])c2)o1
- T/C [17]: 96 % of control
- T/C [18]: 102 % of control
- T/C [19]: 105 % of control

Structure (SMILES): CC(SSc1ccc(C(C)(C)C)cc1)c1ccccc1 (centres undefined)
- T/C [20]: 96 % of control
- T/C [21]: 104 % of control
- T/C [22]: 109 % of control

Structure (SMILES): CC(Cl)(c1ccccc1)C1OCCO1 (centres undefined)
- T/C [17]: 100 % of control
- T/C [18]: 101 % of control
- T/C [19]: 102 % of control
